Assay results published in US12600721B2, “TYK2 inhibitors and uses thereof” (Sudo Biosciences Limited, priority 2021, dated 2026).

Tests used:
TYK2 Pseudokinase (JH2) [1] = assay: HEK-Blue IL-23 reporter assay (SEAP) for profiling TYK2 pseudokinase (JH2) inhibition; type: cell-based; details: HEK-Blue IL-23 cells, 10 ng/mL human recombinant IL-23, SEAP reporter; read-out: IL23 IC50 (TYK2 inhibitory activity)
Description: (§1) HEK-Blue™ IL-23 and IFNα/β cells with a stably-integrated cytokine receptor and STAT3 or STAT1 express STAT-inducible secreted embryonic alkaline phosphatase (SEAP) reporter gene upon cytokine stimulation. These cells are plated in DMEM (Gibco) containing 10% heat-inactivated FBS (Gibco) and 100 U/mL PenStrep (Gibco) at 37° C. under 5% CO2 conditions for 20-22 hours. The cells are then pretreated with serially diluted test compounds for 60 min prior to stimulation with either 10 ng/mL human recombinant IL-23 (Miltenyl Biotech) or 1 ng/mL human recombinant IFNα (InvivoGen) for 22-24 hours for IL-23 or 16-18 h for IFNα. SEAP induction is measured using the QUANTI Blue™ Solution (InvivoGen) according to the manufacturer's instructions.

JAK2-JH1 = molecular target: T1, JAK2-JH1 (Homo sapiens, UniProt O60674); assay: HTRF-based selectivity assay, JAK2 catalytic domain; type: biochemical; details: kinase domain (JH1), 14.7 μM ATP
T1 construct: using a recombinant purified His or GST-tagged catalytic domain for each enzyme; made in house
T1 sequence (O60674 849-1124 limits assumed): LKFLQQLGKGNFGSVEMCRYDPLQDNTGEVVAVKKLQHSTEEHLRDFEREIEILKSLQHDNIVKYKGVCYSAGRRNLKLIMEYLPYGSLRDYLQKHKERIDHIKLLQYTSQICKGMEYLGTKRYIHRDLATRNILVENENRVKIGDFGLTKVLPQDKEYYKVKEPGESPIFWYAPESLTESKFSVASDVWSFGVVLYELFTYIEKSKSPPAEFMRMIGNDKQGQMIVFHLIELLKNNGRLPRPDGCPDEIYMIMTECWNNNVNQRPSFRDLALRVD
Description: (§2) The ability of compounds to inhibit the activity of JAK1, JAK2, JAK3 and TYK2 is measured using a recombinant purified His or GST-tagged catalytic domain for each enzyme (JAK1, JAK2 and TYK2 are generated in-house; JAK3 was purchased from Carna biosciences, Cat #08-046) in an HTRF format biochemical assay. The reactions employs a commercial peptide substrate from Cisbio (Cat #62TK0PEC). The basic assay protocol is as follows: first, 2.5 μL of diluted compounds (4×) in DMSO are dispensed into a 384-well Optiplate. Next, 2.5 μL of enzyme (final concentrations for enzymes are: TYK2-700 ng/mL, JAK1-80.6 ng/ml, JAK2-2.1 ng/ml and JAK3-171.8 ng/mL) is added and incubated at RT for 5-20 min. Finally, 5 μl of mixture of 2×ATP [Final concentration 20 μM for TYK2, 21.43 μM for JAK1, 14.7 μM for JAK2 and 2.12 μM for JAK3]+2× Substrate [Final concentration 217 nM for TYK2, 454.7 nM for JAK1, 200 nM for JAK2 and 257.4 nM for JAK3] is added to 384 well Optiplate. Composition of Kinase assay buffer used in the assay is as follows: HEPES 50 mM, EGTA 1 mM, MgCl2 10 mM, DTT 2 mM, Tween-20 0.01% and water. Then the plates are shaken and then incubated at 26.5° C. for 60 min.

TYK2-JH1 = molecular target: T2, TYK2-JH1 (Homo sapiens, UniProt P29597); assay: HTRF-based selectivity assay, TYK2 catalytic domain; type: biochemical; details: kinase domain (JH1), 20 μM ATP
T2 construct: using a recombinant purified His or GST-tagged catalytic domain for each enzyme; made in house
T2 sequence (P29597 897-1176 limits assumed): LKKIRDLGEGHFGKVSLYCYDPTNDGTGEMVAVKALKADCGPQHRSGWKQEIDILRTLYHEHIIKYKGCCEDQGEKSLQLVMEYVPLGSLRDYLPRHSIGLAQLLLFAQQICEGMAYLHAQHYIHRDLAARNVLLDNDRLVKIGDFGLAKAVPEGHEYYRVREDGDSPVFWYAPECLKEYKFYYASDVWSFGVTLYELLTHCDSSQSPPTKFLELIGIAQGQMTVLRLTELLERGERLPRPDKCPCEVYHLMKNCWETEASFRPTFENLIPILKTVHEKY
Description: as §2

TYK2 Pseudokinase (JH2) [2] = assay: HEK-Blue IFNα/β reporter assay (SEAP) for profiling TYK2 pseudokinase (JH2) inhibition; type: cell-based; details: HEK-Blue IFNα/β cells, 1 ng/mL human recombinant IFNα, read-out: IFNα IC50 (TYK2 inhibitory activity)
Description: as §1

[3] = system: HEK-Blue IL-2 reporter cells; assay: HEK-Blue IL-2 reporter assay (SEAP) for determining selectivity; type: cell-based; details: HEK-Blue IL-2 cells, 4 ng/ml human recombinant IL-2, SEAP reporter
Description: (§3) HEK-Blue™ IL-2 and IFNγ reporter cells with a stably-integrated cytokine receptor and STAT5 or STAT1 express STAT-inducible secreted embryonic alkaline phosphatase (SEAP) reporter gene upon cytokine stimulation. These cells were plated in DMEM (Gibco) containing 10% heat-inactivated FBS (Gibco) and 100 U/mL PenStrep (Gibco) at 37° C. under 5% CO2 conditions for 20-22 hours. The cells were then pretreated with serially diluted test compounds for 60 min prior to stimulation with either 4 ng/ml human recombinant IL-2 (Miltenyl Biotech) or 50 ng/ml human recombinant IFNγ (InvivoGen) for 24 hours. SEAP induction was measured using the QUANTI-Blue™ Solution (InvivoGen) according to the manufacturer's instructions.

JAK1-JH1 = molecular target: T3, JAK1-JH1 (Homo sapiens, UniProt P23458); assay: HTRF-based selectivity assay, JAK1 catalytic domain; type: biochemical; details: kinase domain (JH1), 21.43 μM ATP
T3 construct: using a recombinant purified His or GST-tagged catalytic domain for each enzyme; made in house
T3 sequence (P23458 875-1153 limits assumed): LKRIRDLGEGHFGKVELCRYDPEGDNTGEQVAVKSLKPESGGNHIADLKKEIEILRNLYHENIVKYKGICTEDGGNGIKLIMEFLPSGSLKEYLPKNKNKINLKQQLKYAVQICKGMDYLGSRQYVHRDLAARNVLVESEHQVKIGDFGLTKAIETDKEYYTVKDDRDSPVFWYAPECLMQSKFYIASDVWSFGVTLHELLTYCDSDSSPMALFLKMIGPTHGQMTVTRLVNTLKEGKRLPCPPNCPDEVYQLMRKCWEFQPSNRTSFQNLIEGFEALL
Description: as §2

JAK3-JH1 = molecular target: T4, JAK3-JH1 (Homo sapiens, UniProt P52333); assay: HTRF-based selectivity assay, JAK3 catalytic domain; type: biochemical; details: kinase domain (JH1), 2.12 μM ATP
T4 construct: using a recombinant purified His or GST-tagged catalytic domain for each enzyme; purchased Carna biosciences 08-046
T4 sequence (P52333 822-1111 limits assumed): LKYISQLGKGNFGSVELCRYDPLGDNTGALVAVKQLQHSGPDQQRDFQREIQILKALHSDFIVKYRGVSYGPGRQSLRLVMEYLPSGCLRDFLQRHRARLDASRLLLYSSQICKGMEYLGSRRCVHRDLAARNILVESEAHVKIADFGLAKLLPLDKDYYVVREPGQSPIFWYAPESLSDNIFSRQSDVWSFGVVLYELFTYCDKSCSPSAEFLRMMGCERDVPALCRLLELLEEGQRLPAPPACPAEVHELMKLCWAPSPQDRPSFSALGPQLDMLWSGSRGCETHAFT
Description: as §2

[4] = system: HEK-Blue IFNγ reporter cells; assay: HEK-Blue IFNγ reporter assay (SEAP) for determining selectivity; type: cell-based; details: 50 ng/ml human recombinant IFNγ, read-out: IFN-γ IC50 (SEAP selectivity)
Description: as §3

IC50 (TYK2 Pseudokinase (JH2) [1]) [nM]	IC50 (JAK2-JH1) [nM]	IC50 (TYK2-JH1) [nM]	IC50 (TYK2 Pseudokinase (JH2) [2]) [nM]	IC50 (JAK1-JH1) [nM]	IC50 (JAK3-JH1) [nM]	SMILES	IC50 [3] [nM]	IC50 [4] [nM]
< 30	> 1000	> 1000	< 30	> 1000	> 1000	[2H]C([2H])([2H])NC(=O)c1cnc(NC(=O)C2CC2)cc1Nc1cccc2c1N(C)Cc1cc(F)cnc1-2 [Compound 5, 6-(cyclopropanecarboxamido)-4-((3-fluoro-6-methyl-5,6-dihydrobenzo[h][1,6]naphthyridin-7-yl)amino)-N-(methyl-d3)nicotinamide]	> 1000	> 1000
< 30	> 1000	> 1000	< 30	300 to 1000	> 1000	[2H]C([2H])([2H])NC(=O)c1nnc(NC(=O)C2CC2)cc1Nc1cccc2c1N(C)Cc1cncnc1-2 [Compound 6, 6-(cyclopropanecarboxamido)-N-(methyl-d3)-4-((6-methyl-5,6-dihydropyrimido[5,4-c]quinolin-7-yl)amino)pyridazine-3-carboxamide]	> 1000	30 to 300
< 30	> 1000	> 1000	30 to 300	> 1000	> 1000	[2H]C([2H])([2H])NC(=O)c1nnc(NC(=O)C2CC2)cc1Nc1cccc2c1N(C)Cc1cc(F)cnc1-2 [Compound 7, 6-(cyclopropanecarboxamido)-4-((3-fluoro-6-methyl-5,6-dihydrobenzo[h][1,6]naphthyridin-7-yl)amino)-N-(methyl-d3)pyridazine-3-carboxamide]	300 to 1000	30 to 300
< 30	> 1000	> 1000	< 30	> 1000	> 1000	[2H]C([2H])([2H])NC(=O)c1cnc(NC(=O)C2CC2)cc1Nc1cccc2c1N(C)Cc1nccnc1-2 [Compound 8, 6-(cyclopropanecarboxamido)-N-(methyl-d3)-4-((6-methyl-5,6-dihydropyrazino[2,3-c]quinolin-7-yl)amino)nicotinamide]	> 1000	30 to 300
< 30	> 1000	> 1000	< 30	> 1000	> 1000	[2H]C([2H])([2H])NC(=O)c1nnc(NC(=O)C2CC2)cc1Nc1cccc2c1N(C)Cc1nccnc1-2 [Compound 16, 6-(cyclopropanecarboxamido)-N-(methyl-d3)-4-((6-methyl-5,6-dihydropyrazino[2,3-c]quinolin-7-yl)amino)pyridazine-3-carboxamide]	> 1000	30 to 300
< 30	> 1000	> 1000	< 30	> 1000	> 1000	[2H]C([2H])([2H])NC(=O)c1cnc(NC(=O)C2CC2)cc1Nc1cccc2c1N(C([2H])([2H])[2H])Cc1nccnc1-2 [Compound 17, 6-(cyclopropanecarboxamido)-N-(methyl-d3)-4-((6-(methyl-d3)-5,6-dihydropyrazino[2,3-c]quinolin-7-yl)amino)nicotinamide]	> 1000	30 to 300
< 30	> 1000	> 1000	< 30	> 1000	> 1000	[2H]C([2H])([2H])NC(=O)c1nnc(NC(=O)C2CC2)cc1Nc1cccc2c1N(C([2H])([2H])[2H])Cc1nccnc1-2 [Compound 18, 6-(cyclopropanecarboxamido)-N-(methyl-d3)-4-((6-(methyl-d3)-5,6-dihydropyrazino[2,3-c]quinolin-7-yl)amino)pyridazine-3-carboxamide]	300 to 1000	30 to 300
